Laboratory results from patent publication US20230321140A1, “MULTIPLE MEDIATORS TARGETED MULTIFUNCTIONAL NANOPARTICLES AND USES THEREOF” (The Trustees of Columbia University in the City of New York, priority 2022, published 2023).

Key:
E. coli = assay: Antibacterial effect (OD 600 nm); type: cell-based, Escherichia coli; conditions: 6 h and 12 h
Description: E. coli was used to investigate the anti-bacterial effect of NPs. E. coli diluted in Luria-Bertani liquid medium were seeded in a 96-well plate at a density of 10^6/mL and were treated with NPs at different concentrations. After 6 h and 12 h of incubation with NPs at 37° C., the proliferation of bacteria was determined with a multiwell plate reader by measuring the OD at 600 nm.

calf thymus DNA = assay: PicoGreen DNA binding affinity assay; conditions: TE buffer without FBS; calf thymus DNA 0.5 μg/mL
Description: FIGS. 2A-B show DNA binding affinity of NPs at different NP:DNA mass ratios (see legend) in TE buffer without Fetal Bovine Serum (FBS) (A) and with 10% FBS (B). [Calf thymus DNA]=0.5 μg/mL. (C) Cytotoxicity of NPs to RAW 264.7 cells. (D) Colocalization of FITC-labeled TA-Zn-Gen NPs and Cy5-labeled CpG in lysosomes (CLSM images). Scale bar, 10 μm. Quant-iT PicoGreen (12.5 μL) and calf thymus DNA ([…], 25 μL) were mixed with 1×TE buffer (10 mL) in the dark. NPs at different concentrations in 100 μL together with 100 μL of the above solution were added to a 96-well black plate and incubated at 37° C. for 30 min. The fluorescence intensity of the Picogreen-DNA complex at 520 nm was measured with a multiwell plate reader via excitation at 490 nm.

Row | Compound | antibacterial activity, NPs versus free components (E. coli) | DNA binding affinity (calf thymus DNA)
1 | O=C(OC[C@H]1O[C@@H](OC(=O)c2cc(O)c(O)c(OC(=O)c3cc(O)c(O)c(O)c3)c2)[C@H](OC(=O)c2cc(O)c(O)c(OC(=O)c3cc(O)c(O)c(O)c3)c2)[C@@H](OC(=O)c2cc(O)c(O)c(OC(=O)c3cc(O)c(O)c(O)c3)c2)[C@@H]1OC(=O)c1cc(O)c(O)c(OC(=O)c2cc(O)c(O)c(O)c2)c1)c1cc(O)c(O)c(OC(=O)c2cc(O)c(O)c(O)c2)c1 [tannic acid] | slight antibacterial activity at a high concentration | also exhibited DNA binding
2 | gentamicin | potent concentration-dependent antibacterial effect | –
